Counter-ions that a name gives are not always drawn.
Key:
[1] = molecular target: T1, Na^+ /H^+ exchanger from rabbit erythrocytes (Oryctolagus cuniculus, UniProt P23791); test: Inhibition of the Na^+ /H^+ exchanger from rabbit erythrocytes (Na^+ influx by flame photometry); type: cell-based, rabbit (White New Zealand); settings: pH 7.4, 37° C., cholesterol-fed rabbits
T1 construct: determine the Na^+ influx into the erythrocytes via Na^+ /H^+ exchange by flame photometry; endogenous in cells; host or cells: intact erythrocytes (whole blood samples) of cholesterol-fed White New Zealand rabbits
T1 sequence (P23791 whole entry): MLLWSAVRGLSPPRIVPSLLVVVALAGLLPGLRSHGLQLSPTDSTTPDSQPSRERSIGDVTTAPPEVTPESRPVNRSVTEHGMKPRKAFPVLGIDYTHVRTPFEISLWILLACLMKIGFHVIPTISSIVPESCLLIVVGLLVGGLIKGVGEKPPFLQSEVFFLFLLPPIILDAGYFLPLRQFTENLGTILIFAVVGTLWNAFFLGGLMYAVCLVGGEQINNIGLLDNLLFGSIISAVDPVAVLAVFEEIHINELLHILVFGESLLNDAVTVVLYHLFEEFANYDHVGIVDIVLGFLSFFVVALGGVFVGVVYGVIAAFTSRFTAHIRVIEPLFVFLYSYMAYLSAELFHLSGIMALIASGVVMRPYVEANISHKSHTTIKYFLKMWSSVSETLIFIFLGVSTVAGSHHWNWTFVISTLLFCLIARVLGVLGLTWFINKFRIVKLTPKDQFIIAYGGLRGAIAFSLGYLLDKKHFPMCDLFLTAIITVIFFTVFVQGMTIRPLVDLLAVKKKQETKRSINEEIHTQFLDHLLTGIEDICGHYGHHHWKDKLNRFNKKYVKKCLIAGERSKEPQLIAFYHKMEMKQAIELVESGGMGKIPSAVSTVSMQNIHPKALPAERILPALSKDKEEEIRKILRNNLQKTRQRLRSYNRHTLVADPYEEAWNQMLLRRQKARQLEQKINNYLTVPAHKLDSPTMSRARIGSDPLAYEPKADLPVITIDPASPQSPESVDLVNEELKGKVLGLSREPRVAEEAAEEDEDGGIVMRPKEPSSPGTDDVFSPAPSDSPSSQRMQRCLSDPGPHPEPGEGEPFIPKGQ
Experimental: White New Zealand rabbits (Ivanovas) received a standard diet containing 2% cholesterol for six weeks in order to activate Na^+ /H^+ exchange and thus to be able to determine the Na^+ influx into the erythrocytes via Na^+ /H^+ exchange by flame photometry. The blood was taken from the auricular arteries and rendered uncoagulable by means of 25 IU of potassium heparin. A part of each sample was used for the duplicate determination of the hematocrit by centrifugation. Aliquots of 100 μl in each case were used to measure the Na^+ starting content of the erythrocytes.
In order to determine the amiloride-sensitive sodium influx, 100 μl of each blood sample were incubated at pH 7.4 and 37° C. in 5 ml in each case of a hyperosmolar salt-sucrose medium (mmol/l: 140 NaCl, 3 KCl, 150 sucrose, 0.1 ouabain, 20 trishydroxymethylaminomethane). The erythrocytes were then washed three times with ice-cold MgCl2 --ouabain solution (mmol/l: […] MgCl2, 0.1 ouabain) and hemolyzed in 2.0 ml of distilled water. The intracellular sodium content was determined by flame photometry.
The net Na^+ influx was calculated from the difference between sodium starting values and the sodium content of the erythrocytes after incubation. The amilorideinhibitable sodium influx ensued from the difference in the sodium content of the erythrocytes after incubation with and without amiloride 3×10^-4 mol/l. The sodium influx was also determined in this manner in the case of the compounds according to the invention.

cardiac arrhythmias = settings: in vivo; cited from earlier work

IC50 [1]	SMILES	side effects accompanying antiarrhythmic effect (cardiac arrhythmias)
400 nM	CC(O)c1ccc(Oc2ccc(C(=O)N=C(N)N)cc2S(C)(=O)=O)cc1 (racemic) [Example 2, hydrochloride]	
400 nM	CC(=O)c1ccc(Oc2ccc(C(=O)N=C(N)N)cc2S(C)(=O)=O)cc1 [Example 1, 4-(4-Acetylphenoxy)-3-methylsulfonylbenzoylguanidine]	
300 to 500 nM	C[C@@H](O)[C@H](O)c1ccc(Oc2ccc(C(=O)N=C(N)N)cc2S(C)(=O)=O)cc1 [Example 3, 4-[4-(1(R),2(R) -Dihydroxyprop-1-yl)phenoxy]-3-methylsulfonylbenzoylguanidine]	
100 to 500 nM	C[C@H](O)[C@@H](O)c1ccc(Oc2ccc(C(=O)N=C(N)N)cc2S(C)(=O)=O)cc1 [Example 4, 4-[4-(1(S),2(S)-Dihydroxyprop-1-yl)phenoxy]-3-methylsulfonylbenzoylguanidin]	
	N=C(N)NC(=O)c1nc(Cl)c(N)nc1N [amiloride, Amiloride]	hypotensive and saluretic action

Source: patent publication US5880156A, “Substituted benzoylguanidines, process for their preparation, their use as a medicament or diagnostic and medicament containing them” (priority 1993, dated 1999)
